Test results from patent publication US10676436B2, “NLRX1 ligands” (Landos Biopharma, Inc., priority 2018, dated 2020).

How the values were obtained:
[1] = tested on: DSS model of colitis; experiment: DSS model of colitis (acute model of IBD); assay type: in vivo, mice
Experimental: Mice were given 8% (w/v) DSS in drinking water for seven days to induce disruption of the epithelial layer. At project initiation, mice were 8 weeks of age and began dosing 24 hours after being placed on 8% DSS. Mice were weighed and scored daily for symptoms of disease (diarrhea, rectal bleeding, rectal inflammation, overall behavior). Treatment administration. NX-13 was prepared within a 0.5% methylcellulose (12-15 cP) solution. Dosage used was 20 mg/kg delivered once daily. Mice were weighed on a weekly basis to update dosage formulation. Dosage was calculated based off mean body weights for each gender. Oral dosage was delivered by orogastric gavage of dosage in 0.2 mL volume. Colons were collected into RPMI/FBS buffer containing collagenase (300 U/mL) and DNase (50 U/mL) for digestion. Tissues were digested for 60 minutes under stirring at 37° C. Resultant cellular suspensions were filtered through 100 μm strainers, centrifuged (300×g, 8 min), and washed in fresh RPMI. Following filtration of the resulting single cell suspensions, immune cells were purified by Percoll gradient of cell-containing 40% Percoll overlayed onto 70% Percoll solution. After centrifugation, interphase was collected and washed to obtain enriched colonic lamina propria cell fractions. Cells were labeled with mixtures of extracellular (CD45, CD3, CD4, CD8, CD19, NK1.1, CD25, F4/80, CD11b, Gr1, CX3CR1, CD64) and intracellular (Tbet, RORγT, FOXP3, IFNγ, IL17, IL10) antibodies in a sequential live staining in 96-well plates. Data was acquired using a FACS Celesta flow cytometer with FACSDiva software. Total RNA from colon and cells was generated using the Qiagen RNeasy mini kit. cDNA was generated using the BioRad iScript cDNA synthesis kit. Standard curves were generated by serial dilution of purified product from a standard PCR reaction with Taq DNA polymerase followed by purification using the Qiagen MinElute PCR purification kit. Expression levels were obtained from quantitative real-time PCR with SybrGreen supermix on a BioRad CFX96 Thermal cycler followed by normalization to expression of β-actin.

[2] = molecular target: T1, mutated NLRX1 protein (D677A, F680A, F681A, E684A) (Homo sapiens, UniProt Q86UT6, D677A/E684A/F680A/F681A); experiment: Surface plasmon resonance binding to NLRX1-Mutant
T1 construct: made in house; host or cells: Pichia pastoris (by 'similar methods')
T1 sequence (Q86UT6 87-975 D677A/F680A/F681A/E684A): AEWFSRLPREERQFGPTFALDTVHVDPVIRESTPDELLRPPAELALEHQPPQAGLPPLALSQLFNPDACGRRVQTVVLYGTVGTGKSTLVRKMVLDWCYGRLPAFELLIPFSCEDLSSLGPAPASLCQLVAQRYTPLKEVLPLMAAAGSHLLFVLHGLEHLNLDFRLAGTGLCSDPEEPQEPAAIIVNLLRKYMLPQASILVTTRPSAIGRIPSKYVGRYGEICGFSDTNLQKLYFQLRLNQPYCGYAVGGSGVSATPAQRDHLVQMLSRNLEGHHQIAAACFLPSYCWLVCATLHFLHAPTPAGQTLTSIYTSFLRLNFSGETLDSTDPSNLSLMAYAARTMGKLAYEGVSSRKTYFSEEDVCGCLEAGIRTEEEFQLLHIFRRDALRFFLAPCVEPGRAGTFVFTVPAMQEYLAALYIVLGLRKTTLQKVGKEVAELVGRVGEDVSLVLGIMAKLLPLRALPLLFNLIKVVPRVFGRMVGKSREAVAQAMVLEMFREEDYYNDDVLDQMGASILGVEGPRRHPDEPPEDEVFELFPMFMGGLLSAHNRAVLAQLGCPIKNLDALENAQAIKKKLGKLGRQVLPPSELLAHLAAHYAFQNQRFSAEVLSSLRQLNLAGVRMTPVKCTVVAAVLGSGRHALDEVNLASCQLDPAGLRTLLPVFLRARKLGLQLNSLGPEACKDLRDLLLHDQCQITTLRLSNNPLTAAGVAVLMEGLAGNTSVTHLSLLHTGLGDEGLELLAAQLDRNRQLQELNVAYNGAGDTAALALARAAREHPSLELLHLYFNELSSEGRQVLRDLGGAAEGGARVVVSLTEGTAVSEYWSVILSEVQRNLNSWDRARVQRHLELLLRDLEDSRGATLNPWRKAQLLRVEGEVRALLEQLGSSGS
Experimental: NLRX1 production and purification. Human NLRX1 (www.uniprot.org; UniProtKB—Q86UT6 (NLRX1 HUMAN)) was cloned into E. coli, amplified and transfected in Pichia pastoris. P. pastoris was plated onto adenine selective media. Stable transfected colonies were selected and grown within YPD broth at 30° C. for 24 hours, 240 RPM shaking. Starter culture was used to inoculate base media (1% yeast extract, 2% peptone, 1% sorbitol, 2% yeast nitrogen base) containing biotin and buffered with potassium phosphate. Inoculated base media was incubated for 48 hours at 30° C., 240 RPM. P. pastoris was then pelleted by centrifugation and resuspended in expression media (1% sorbitol, 2% yeast nitrogen base) containing biotin and buffered with potassium phosphate. Culture was induced daily for protein production through addition of methanol and incubated for a total of 4 days at 28° C., 240 RPM. After incubation, cells were pelleted by centrifugation and lysed by sonication. Recombinant NLRX1 protein was purified by fast protein liquid chromatography (AktaPrime) using immobilized metal affinity chromatography. Fractions of protein were eluted in 1 mL aliquots and evaluated for NLRX1 content. A mutated NLRX1 protein was generated using similar methods to disrupt binding within the predicted binding site through altering four residues to alanine (D677A, F680A, F681A, and E684A).
A Biacore T200 was used to evaluate binding to the NLRX1 protein. NLRX1-WT and NLRX1-Mutant were used as proteins to immobilize onto the CM5 sensor chip. NLRX1-WT was diluted in 10 mM sodium acetate buffer at pH 4.0 and immobilized onto the flow cell to a level of ˜3700 RU, using standard amine coupling chemistry. NLRX1-Mutant was diluted in 10 mM sodium acetate buffer at pH 4.0 and immobilized onto the flow cell to a level of ˜3100 RU, using standard amine coupling chemistry. 20 mM MOPS, 150 mM NaCl, 5 mM sodium acetate, 1 mM EDTA, 0.05% Tween-20, pH 8.0 buffer (Running buffer) was used as the immobilization running buffer. Based on the immobilized response values, theoretical Rmax values were calculated. […]

[3] = tested on: MDR1a−/− model of colitis; experiment: MDR1a−/− model of colitis (chronic model of IBD); assay type: in vivo, mice
Experimental: MDR1a−/− model. Mice deficient in MDR1a spontaneously develop colitis. MDR1a−/− began receiving NX-13 treatment (oral, 20 mg/kg) at 4 weeks of age and continued treatment until 10 weeks of age. Mice were weighed and scored weekly. NX-13 was prepared within a 0.5% methylcellulose (12-15 cP) solution. Dosage used was 20 mg/kg delivered once daily. Mice were weighed on a weekly basis to update dosage formulation. Dosage was calculated based off mean body weights for each gender. Oral dosage was delivered by orogastric gavage of dosage in 0.2 mL volume. Colons were collected into RPMI/FBS buffer containing collagenase (300 U/mL) and DNase (50 U/mL) for digestion. Tissues were digested for 60 minutes under stirring at 37° C. Resultant cellular suspensions were filtered through 100 μm strainers, centrifuged (300× g, 8 min), and washed in fresh RPMI. Following filtration of the resulting single cell suspensions, immune cells were purified by Percoll gradient of cell-containing 40% Percoll overlayed onto 70% Percoll solution. After centrifugation, interphase was collected and washed to obtain enriched colonic lamina propria cell fractions. Cells were labeled with mixtures of extracellular (CD45, CD3, CD4, CD8, CD19, NK1.1, CD25, F4/80, CD11b, Gr1, CX3CR1, CD64) and intracellular (Tbet, RORγT, FOXP3, IFNγ, IL17, IL10) antibodies in a sequential live staining in 96-well plates. Data was acquired using a FACS Celesta flow cytometer with FACSDiva software. H&E stained colonic sections were prepared from portions of colons collected into 10% buffered formalin and embedded in paraffin. Slides were examined by a board-certified veterinary pathologist via an Olympus microscope and images were collected with Image-Pro software. Samples were scored (0-4) for leukocytic infiltration, epithelial erosion and mucosal thickening.

[4] = day 7 of DSS challenge, qRT-PCR, normalized to beta-actin
[5] = oral 20 mg/kg, day 7 of DSS challenge, flow cytometry
[6] = six weeks of treatment, flow cytometry

Compound: Cc1cccc(Oc2cc(Oc3cccc(C)n3)cc(Oc3cccc(C)n3)c2)n1 [NX-13, 1,3,5-tris (6-methylpyridin-2-yloxy) benzene]
- expression of Ifng in the whole colon [1, 4]: reduced
- expression of Tnfa in the whole colon [1, 4]: reduced
- maximal observed reduction of disease activity ([1]; oral 20 mg/kg once daily, day 6): 50%
- number of FOXP3+ regulatory CD4+ T cells ([1]; oral 20 mg/kg, colon): did not reduce
- reduction of Th1 cells in the colonic lamina propria [1, 5]: more than 50%
- reduction of neutrophils in the colonic lamina propria [1, 5]: more than 50%
- binding to the mutated NLRX1 protein [2]: Loss of binding
- development of leukocyte aggregates and thickening of the mucosa ([3]; after six weeks of treatment): protected against
- overall leukocytic infiltration and epithelial erosion ([3]; after six weeks of treatment): reduced
- maximal observed reduction of disease activity ([3]; oral 20 mg/kg once daily, week six of treatment): 70%
- colonic pathology ([3]; oral, six weeks of treatment, H&E): greatly reduced
- numbers of F4/80hi macrophages [3, 6]: greatly reduced
- numbers of IL-17 and IFNγ producing T cells [3, 6]: greatly reduced
- proportions of Th1 cells in the colonic lamina propria [3, 6]: reduces
- proportions of neutrophils in the colonic lamina propria [3, 6]: reduces
- proportions of regulatory CD4+ T (Treg) cells in the colon [3, 6]: increased
